Assay results reported in patent US8624027B2, “Combination therapy for treating cancer and diagnostic assays for use therein” (AbbVie Inc., priority 2005, dated 2014).
Like-named read-outs stand apart in the source and are kept apart here.

Tests used:
[1] = molecular target: T1, Bcl-2 protein (Homo sapiens, UniProt P10415, DELINS35-91DVEENRTEAPEGTESE, form not given); experiment: Bcl-2 binding affinity, fluorescence polarization with fluorescein-labeled BAX peptide; details: Wang's equation, read-out: Target Binding Affinity Ki (Bcl-2)
T1 construct: fused on or other part: A short piece of the Bcl-xL (Q07817) loop replaces Bcl-2 loop residues 35-91; The C-terminal membrane anchor is absent
T1 sequence (P10415 with tags, fused parts or gaps with the stated changes): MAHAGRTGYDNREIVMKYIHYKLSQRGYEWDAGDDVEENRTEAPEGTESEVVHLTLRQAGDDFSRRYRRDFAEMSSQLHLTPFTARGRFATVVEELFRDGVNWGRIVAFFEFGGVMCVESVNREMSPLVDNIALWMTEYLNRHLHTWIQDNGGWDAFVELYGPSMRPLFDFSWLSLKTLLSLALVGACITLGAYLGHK

[2] = molecular target: Bcl-XL protein (Homo sapiens, UniProt Q07817); experiment: Bcl-XL binding affinity, fluorescence polarization with fluorescein-labeled BAD peptide; details: Wang's equation, read-out: Target Binding Affinity Ki (Bcl-XL)
Sequence of Bcl-XL protein (Q07817 with tags, fused parts or gaps DEL45-84): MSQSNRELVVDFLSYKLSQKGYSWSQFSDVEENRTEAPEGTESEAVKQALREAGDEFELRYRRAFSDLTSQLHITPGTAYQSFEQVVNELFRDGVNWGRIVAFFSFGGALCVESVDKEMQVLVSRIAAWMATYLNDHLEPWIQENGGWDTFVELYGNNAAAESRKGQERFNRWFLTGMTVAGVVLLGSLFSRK
Description: A mixture comprising 125 μL per well of assay buffer (20 mM phosphate buffer (pH 7.4), 1 mM EDTA, 50 mM NaCl, 0.05% PF-68), 6 nM of Bcl-XL protein (prepared as described in Science 1997, 275, 983-986), 1 nM fluorescein-labeled BAD peptide (prepared in-house) and the DMSO solution of the compound was shaken for 2 minutes and placed in a LJL Analyst (LJL Bio Systems, CA). A negative control (DMSO, 15 nM BAD peptide, assay buffer) and a positive control (DMSO, 1 nM BAD peptide, 6 nM Bcl-XL, assay buffer) were used to determine the range of the assay. Polarization was measured at room temperature using a continuous Fluorescein lamp (excitation 485 nm, emission 530 nm). Percentage of inhibition was determined by (1-((mP value of well-negative control)/range))×100%.
Ki values shown in the tables below were determined using Wang's equation (Wang Z X., An Exact Mathematical Expression For Describing Competitive Binding Of Two Different Ligands To A Protein Molecule. FEBS Lett. 1995; 360:111-4)).

[3] = system: NCI-H146 human small cell lung carcinoma cells; experiment: Cellular efficacy in human tumor cell line (MTS viability assay); type: cell-based; details: NCI-H146, 10% human serum, 48 hours
Procedure, shortened: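 Cells plated at 50,000/well in medium with 10% human serum in place of FBS. Treated with 2-fold serial dilutions from 10 μM to 0.020 μM, in duplicate, at least 3 separate runs. Viable cells measured by MTS after 48 h of compound exposure.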

[4] = Pharmacokinetic evaluation in rat; type: in vivo; details: male, Sprague-Dawley, plasma; for AUC(0-inf): single 5 mg/kg oral dose, Table 1, read-out: Pharmacokinetic area under the plasma concentration Curve (rat) AUC0-∞; for AUC / Cmax: 5 mg/kg, oral
Procedure, shortened: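 Male Sprague-Dawley rats (n=3/group) received a single 2 mg/kg IV (jugular slow bolus) or 5 mg/kg oral gavage dose in 10% DMSO/PEG-400; tail-vein plasma sampled to 24 h. Acetonitrile-precipitated plasma quantified by LC-MS/MS (LOQ 0.01 μg/mL); AUC0-∞ by linear trapezoidal rule plus Ct/β extrapolation.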

[5] = system: mantle cell lymphoma; experiment: Oral efficacy of EXAMPLE 1 in combination therapy, antitumorigenesis on mantle cell lymphoma; type: in vivo; details: without EXAMPLE 1
[6] = system: B-cell lymphoma; experiment: Oral efficacy of EXAMPLE 1 in combination therapy, antitumorigenesis on B-cell lymphoma; type: in vivo; details: without EXAMPLE 1
[7] = Table 1, read-out: NCI-H146 Cellular Efficacy EC50
[8] = Table 2, read-out: NCI-H146 Cellular Efficacy H146, EC50
[9] = Table 2, read-out: Pharmacokinetic area under the plasma concentration curve (rat) AUC
[10] = Table 2, read-out: Pharmacokinetic peak plasma concentration (rat) Cmax

Molecule	Ki [1]	Ki [2]	EC50 [3, 7]	AUC(0-inf) [4]	also measured
O=C(NS(=O)(=O)c1ccc(N[C@H](CCN2CCCC2)CSc2ccccc2)c(S(=O)(=O)C(F)(F)F)c1)c1ccc(N2CCN(CC3=C(c4ccc(Cl)cc4)CCCCC3)CC2)cc1 [Example 29, N-(4-(4-((2-(4-chlorophenyl)cyclohept-1-en-1-yl)methyl)piperazin-1-yl)benzoyl)-4-(((1R)-1-((phenylsulfanyl)methyl)-3-(pyrrolidin-1-yl)propyl)amino)-3-((trifluoromethyl)sulfonyl)benzenesulfonamide]	≤ 1 nM	≤ 1 nM	29.8 nM	1.74 µM·h	
CC1(C)CCC(c2ccc(Cl)cc2)=C(CN2CCN(c3ccc(C(=O)NS(=O)(=O)c4ccc(N[C@H](CCN5CCCC5)CSc5ccccc5)c(S(=O)(=O)C(F)(F)Cl)c4)cc3)CC2)C1 [Example 30, 3-((chloro(difluoro)methyl)sulfonyl)-N-(4-(4-((2-(4-chlorophenyl)-5,5-dimethylcyclohex-1-en-1-yl)methyl)piperazin-1-yl)benzoyl)-4-(((1R)-1-((phenylsulfanyl)methyl)-3-(pyrrolidin-1-yl)propyl)amino)benzenesulfonamide]	≤ 1 nM	≤ 1 nM	31.7 nM	3.39 µM·h	
CC1(C)CCC(CN2CCN(c3ccc(C(=O)NS(=O)(=O)c4ccc(N[C@H](CCN5CCCC5)CSc5ccccc5)c(S(=O)(=O)C(F)(F)Cl)c4)cc3)CC2)=C(c2ccc(Cl)cc2)C1 [Example 31, 3-((chloro(difluoro)methyl)sulfonyl)-N-(4-(4-((2-(4-chlorophenyl)-4,4-dimethylcyclohex-1-en-1-yl)methyl)piperazin-1-yl)benzoyl)-4-(((1R)-1-((phenylsulfanyl)methyl)-3-(pyrrolidin-1-yl)propyl)amino)benzenesulfonamide]	≤ 1 nM	≤ 1 nM	13 nM	5.1 µM·h	
O=C(NS(=O)(=O)c1ccc(N[C@H](CCN2CCCC2)CSc2ccccc2)c(S(=O)(=O)C(F)(F)Cl)c1)c1ccc(N2CCN(CC3=C(c4ccc(Cl)cc4)CCCCC3)CC2)cc1 [Example 32, 3-((chloro(difluoro)methyl)sulfonyl)-N-(4-(4-((2-(4-chlorophenyl)cyclohept-1-en-1-yl)methyl)piperazin-1-yl)benzoyl)-4-(((1R)-1-((phenylsulfanyl)methyl)-3-(pyrrolidin-1-yl)propyl)amino)benzenesulfonamide]	≤ 1 nM	≤ 1 nM	18.7 nM	1.38 µM·h	
CC(C)N(C)CC[C@H](CSc1ccccc1)Nc1ccc(S(=O)(=O)NC(=O)c2ccc(N3CCN(CC4=C(c5ccc(Cl)cc5)CCCC4)CC3)cc2)cc1S(=O)(=O)C(F)(F)F [Example 33, N-(4-(4-((2-(4-chlorophenyl)cyclohex-1-en-1-yl)methyl)piperazin-1-yl)benzoyl)-4-(((1R)-3-(isopropyl(methyl)amino)-1-((phenylsulfanyl)methyl)propyl)amino)-3-((trifluoromethyl)sulfonyl)benzenesulfonamide]	≤ 1 nM	≤ 1 nM	37.8 nM	3.01 µM·h	EC50 ([3]; Table 3, read-out: NCI-H146 Cellular Efficacy H146 EC50): 38 nM; AUC ([4]; Table 3, read-out: Pharmacokinetic area under the plasma concentration Curve (rat) AUC): 3.01 µM·h; Cmax ([4]; Table 3, read-out: Pharmacokinetic peak plasma concentration (rat) Cmax): 129 nM
CC1(C)CCC(CN2CCN(c3ccc(C(=O)NS(=O)(=O)c4ccc(N[C@H](CCN5CCCC5)CSc5ccccc5)c(S(=O)(=O)C(F)(F)F)c4)cc3)CC2)=C(c2ccc(Cl)cc2)C1 [Example 34, N-(4-(4-((2-(4-chlorophenyl)-4,4-dimethylcyclohex-1-en-1-yl)methyl)piperazin-1-yl)benzoyl)-4-(((1R)-1-((phenylsulfanyl)methyl)-3-(pyrrolidin-1-yl)propyl)amino)-3-((trifluoromethyl)sulfonyl)benzenesulfonamide]	≤ 1 nM	≤ 1 nM	20 nM	11.1 µM·h	
O=C(NS(=O)(=O)c1ccc(N[C@H](CCN2CCCC2)CSc2ccccc2)c(S(=O)(=O)C(F)(F)Cl)c1)c1ccc(N2CCN(CC3=C(c4ccc(Cl)cc4)CCCC3)CC2)cc1 [Example 35, 3-((chloro(difluoro)methyl)sulfonyl)-N-(4-(4-((2-(4-chlorophenyl)cyclohex-1-en-1-yl)methyl)piperazin-1-yl)benzoyl)-4-(((1R)-1-((phenylsulfanyl)methyl)-3-(pyrrolidin-1-yl)propyl)amino)benzenesulfonamide]	≤ 1 nM	≤ 1 nM	7.6 nM	1.26 µM·h	
CC1(C)CCC(CN2CCN(c3ccc(C(=O)NS(=O)(=O)c4ccc(N[C@H](CCN5C[C@@H]6C[C@H]5CO6)CSc5ccccc5)c(S(=O)(=O)C(F)(F)F)c4)cc3)CC2)=C(c2ccc(Cl)cc2)C1 [Example 36, N-(4-(4-((2-(4-chlorophenyl)-4,4-dimethylcyclohex-1-en-1-yl)methyl)piperazin-1-yl)benzoyl)-4-(((1R)-3-((1S,4S)-2-oxa-5-azabicyclo[2.2.1]hept-5-yl)-1-((phenylsulfanyl)methyl)propyl)amino)-3-((trifluoromethyl)sulfonyl)benzenesulfonamide]	≤ 1 nM	≤ 1 nM	24.2 nM	4.22 µM·h	
CN(C)CC[C@H](CSc1ccccc1)Nc1ccc(S(=O)(=O)NC(=O)c2ccc(N3CCN(CC4=C(c5ccc(Cl)cc5)CC(C)(C)CC4)CC3)cc2)cc1S(=O)(=O)C(F)(F)F [Example 37, N-(4-(4-((2-(4-chlorophenyl)-4,4-dimethylcyclohex-1-en-1-yl)methyl)piperazin-1-yl)benzoyl)-4-(((1R)-3-(dimethylamino)-1-((phenylsulfanyl)methyl)propyl)amino)-3-((trifluoromethyl)sulfonyl)benzenesulfonamide]	≤ 1 nM	≤ 1 nM	17.5 nM	7.3 µM·h	
CN(C)CC[C@H](CSc1ccccc1)Nc1ccc(S(=O)(=O)NC(=O)c2ccc(N3CCN(Cc4ccccc4-c4ccc(Cl)cc4)CC3)cc2)cc1S(=O)(=O)C(F)(F)F [Example 38, N-(4-(4-((4′-chloro(1,1′-biphenyl)-2-yl)methyl)-1-piperazinyl)benzoyl)-4-(((1R)-3-(dimethylamino)-1-((phenylsulfanyl)methyl)propyl)amino)-3-((trifluoromethyl)sulfonyl)benzenesulfonamide]	≤ 1 nM	≤ 1 nM	39.4 nM	0.67 µM·h	EC50 [3, 8]: 39 nM; AUC [4, 9]: 0.665 µM·h; Cmax [4, 10]: 72 nM
O=C(NS(=O)(=O)c1ccc(N[C@H](CCN2CCOCC2)CSc2ccccc2)c(S(=O)(=O)C(F)(F)F)c1)c1ccc(N2CCN(Cc3ccccc3-c3ccc(Cl)cc3)CC2)cc1 [Example 39, N-(4-(4-((4′-chloro(1,1′-biphenyl)-2-yl)methyl)-1-piperazinyl)benzoyl)-4-(((1R)-3-(4-morpholinyl)-1-((phenylsulfanyl)methyl)propyl)amino)-3-((trifluoromethyl)sulfonyl)benzenesulfonamide]	≤ 1 nM	≤ 1 nM	82.7 nM	1.66 µM·h	EC50 [3, 8]: 83 nM; AUC [4, 9]: 1.66 µM·h; Cmax [4, 10]: 290 nM
CC(C)C[C@H](NC(=O)[C@H](Cc1ccccc1)NC(=O)c1cnccn1)B(O)O [bortexomib, reference compound]					tumor regressions, agent alone [5]: no tumor regressions
CO[C@H]1C[C@@H]2CC[C@@H](C)[C@@](O)(O2)C(=O)C(=O)N2CCCC[C@H]2C(=O)O[C@H]([C@H](C)C[C@@H]2CC[C@@H](O)[C@H](OC)C2)CC(=O)[C@H](C)/C=C(\C)[C@@H](O)[C@@H](OC)C(=O)[C@H](C)C[C@H](C)/C=C/C=C/C=C/1C [rapamycin, reference compound]					tumor regressions, agent alone [6]: 10%
rituximab: antibody, RITUXAN® (rituximab) [reference compound]					tumor regressions, agent alone [6]: no tumor regressions
